Assay results as given in ChEMBL document CHEMBL6083286, “Discovery of ERD-12310A as an Exceptionally Potent and Orally Efficacious PROTAC Degrader of Estrogen Receptor α (ERα)” (J Med Chem, 2024).
Active and inactive are the calls of the source. No cut-off for these calls is given here.

Key:
[1] = target: T1, Protein cereblon/Estrogen receptor (Homo sapiens, UniProt P03372+Q96SW2); assay: PROTAC activity at CRBN/ERalpha in human MCF7 cells assessed as reduction in ERalpha protein level measured after 12 hrs by Western blot analysis; type: cell-based
Target sequence in this assay (P03372 whole entry): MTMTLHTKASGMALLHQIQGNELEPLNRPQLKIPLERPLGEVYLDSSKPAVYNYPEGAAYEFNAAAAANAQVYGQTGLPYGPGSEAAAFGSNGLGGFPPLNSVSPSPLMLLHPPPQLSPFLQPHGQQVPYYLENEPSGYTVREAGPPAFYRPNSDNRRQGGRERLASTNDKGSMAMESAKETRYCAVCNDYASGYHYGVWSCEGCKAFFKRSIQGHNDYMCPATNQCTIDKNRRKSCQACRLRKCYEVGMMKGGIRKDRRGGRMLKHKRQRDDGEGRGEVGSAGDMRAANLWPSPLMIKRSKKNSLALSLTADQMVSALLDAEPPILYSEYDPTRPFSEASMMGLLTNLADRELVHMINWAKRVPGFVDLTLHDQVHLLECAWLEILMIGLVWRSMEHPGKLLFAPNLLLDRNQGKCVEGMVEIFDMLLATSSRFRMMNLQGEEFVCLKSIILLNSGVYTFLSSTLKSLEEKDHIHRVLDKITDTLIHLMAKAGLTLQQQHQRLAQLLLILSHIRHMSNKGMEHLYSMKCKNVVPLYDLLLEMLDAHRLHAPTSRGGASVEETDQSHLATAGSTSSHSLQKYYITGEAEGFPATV
Target sequence in this assay (Q96SW2 whole entry): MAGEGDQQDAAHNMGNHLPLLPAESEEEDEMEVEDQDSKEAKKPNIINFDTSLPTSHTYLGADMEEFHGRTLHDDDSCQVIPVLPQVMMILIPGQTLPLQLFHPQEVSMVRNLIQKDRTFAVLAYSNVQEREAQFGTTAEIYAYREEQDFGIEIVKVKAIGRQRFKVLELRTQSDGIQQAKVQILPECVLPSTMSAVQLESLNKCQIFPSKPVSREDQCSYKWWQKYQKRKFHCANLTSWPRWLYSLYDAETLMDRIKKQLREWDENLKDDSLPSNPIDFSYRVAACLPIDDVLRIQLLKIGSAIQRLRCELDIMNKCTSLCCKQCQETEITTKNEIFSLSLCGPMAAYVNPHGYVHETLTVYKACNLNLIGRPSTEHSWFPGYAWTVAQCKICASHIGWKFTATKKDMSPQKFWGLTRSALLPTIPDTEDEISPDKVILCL

[2] = target: T1, Protein cereblon/Estrogen receptor; assay: PROTAC activity at CRBN/ERalpha in human MCF7 cells assessed as reduction in ERalpha protein level measured after 12 hrs by Western blot analysis relative to control; type: cell-based
Target sequence in this assay (P03372 whole entry, looked up): as the sequence (P03372 whole entry) above
Target sequence in this assay (Q96SW2 whole entry, looked up): as the sequence (Q96SW2 whole entry) above

Protein cereblon = Protein cereblon (Homo sapiens, UniProt Q96SW2); assay: Binding affinity to wild type GST-tagged human CRBN by HTRF assay
Chain of Protein cereblon (Q96SW2 whole entry): as above

[3] = target: T1, Protein cereblon/Estrogen receptor; assay: PROTAC activity at CRBN/wild type ERalpha in human T47D cells assessed as reduction in ERalpha protein level at 10 to 100 nM measured at 7 hrs by Western blot analysis; type: cell-based; settings: dose 10-100 nM
Target sequence in this assay (P03372 whole entry, looked up): as the sequence (P03372 whole entry) above
Target sequence in this assay (Q96SW2 whole entry, looked up): as the sequence (Q96SW2 whole entry) above

T47D [4] = assay: PROTAC activity at CRBN/ ERalpha Y537S mutant in human T47D cells assessed as reduction in ERalpha protein level at 10 to 100 nM measured at 7 hrs by Western blot analysis; type: cell-based; parameters: scale not given: the % may be the effect or the level left; settings: dose 10-100 nM
T47D [5] = assay: PROTAC activity at CRBN/ ERalpha D538G mutant in human T47D cells assessed as reduction in ERalpha protein level at 10 to 100 nM measured at 7 hrs by Western blot analysis; type: cell-based; parameters: scale not given: the % may be the effect or the level left; settings: dose 10-100 nM
MCF7 = assay: Antiproliferative activity against human MCF7 cells assessed as cell growth inhibition incubated for 4 days by crystal violet staining based assay; type: functional; settings: time 4.0 day
[6] = Metabolic stability mouse liver microsome assessed as half life; type: ADME; settings: microsomes
[7] = Metabolic stability rat liver microsome assessed as half life; type: ADME; settings: microsomes
[8] = Stability in mouse plasma assessed as half life; type: ADME, cell-free
[9] = Stability in rat plasma assessed as half life; type: ADME, cell-free
[10] = Stability in human plasma assessed as half life; type: ADME, cell-free
[11] = Drug concentration in female Sprague-Dawley rat plasma at 3 mg/kg, po measured at 1 hr by LC-MS analysis; type: ADME, organism-based
[12] = Drug concentration in female Sprague-Dawley rat plasma at 3 mg/kg, po measured at 3 hrs by LC-MS analysis; type: ADME, organism-based
[13] = Drug concentration in female Sprague-Dawley rat plasma at 3 mg/kg, po measured at 6 hrs by LC-MS analysis; type: ADME, organism-based
[14] = Drug concentration in female Sprague-Dawley rat plasma at 3 mg/kg, po measured at 24 hrs by LC-MS analysis; type: ADME, organism-based

| Structure (SMILES) | DC50 [1] | Emax [2] | other results |
| --- | --- | --- | --- |
| O=C1CC[C@H](N2Cc3c(ccc4c3OCC43CCN(C[C@H]4CCC5(CCN(c6ccc([C@@H]7c8ccc(O)cc8CC[C@@H]7c7ccccc7)cc6)CC5)OC4)CC3)C2=O)C(=O)N1 | 0.142 nM | 100% | – |
| O=C1CC[C@H](N2Cc3c(ccc4c3OCC43CCN(CCCCC4CCN(c5ccc([C@@H]6c7ccc(O)cc7CC[C@@H]6c6ccccc6)cc5)CC4)CC3)C2=O)C(=O)N1 | 0.031 nM | 105% | – |
| O=C1CC[C@H](N2Cc3c(ccc4c3OCC43CCN(CC4CC5(CCN(c6ccc([C@@H]7c8ccc(O)cc8CC[C@@H]7c7ccccc7)cc6)CC5)CO4)CC3)C2=O)C(=O)N1 (stereo partly drawn) | 0.303 nM | 94% | – |
| O=C1CC[C@H](N2Cc3c(ccc4c3OCC43CCN(C(=O)CN4CC5(C4)CN(c4ccc([C@@H]6c7ccc(O)cc7CC[C@@H]6c6ccccc6)cc4)C5)CC3)C2=O)C(=O)N1 | 0.011 nM | 99% | – |
| O=C1CC[C@H](N2Cc3c(ccc4c3OCC43CCN(CC4COC5(CCN(c6ccc([C@@H]7c8ccc(O)cc8CC[C@@H]7c7ccccc7)cc6)CC5)OC4)CC3)C2=O)C(=O)N1 | 0.167 nM | 100% | – |
| O=C1CC[C@H](N2Cc3c(ccc4c3OCC43CCN(CC4CCC5(CCN(c6ccc([C@@H]7c8ccc(O)cc8CC[C@@H]7c7ccccc7)cc6)CC5)C4)CC3)C2=O)C(=O)N1 (stereo partly drawn) | 0.126 nM | 92% | – |
| O=C1CC[C@H](N2Cc3c(ccc4c3OCC43CCN(CCCCCC4CCN(c5ccc([C@@H]6c7ccc(O)cc7CC[C@@H]6c6ccccc6)cc5)CC4)CC3)C2=O)C(=O)N1 | 0.42 nM | 105% | – |
| O=C1CC[C@H](N2Cc3c(ccc4c3OCC43CCN(C(=O)CN4CCC5(CC4)CCN(c4ccc([C@@H]6c7ccc(O)cc7CC[C@@H]6c6ccccc6)cc4)CC5)CC3)C2=O)C(=O)N1 | 0.035 nM | 103% | – |
| C[C@]12CC[C@@H]3c4ccc(O)cc4C[C@@H](CCCCCCCCC[S+]([O-])CCCC(F)(F)C(F)(F)F)[C@H]3[C@@H]1CC[C@@H]2O (stereo partly drawn) | – | 100% | – |
| O=C1CC[C@H](N2Cc3c(ccc4c3OCC43CCN(CC4CC5(CCN(c6ccc([C@@H]7c8ccc(O)cc8CC[C@@H]7c7ccccc7)cc6)CC5)C4)CC3)C2=O)C(=O)N1 | 0.147 nM | 87% | – |
| CN1C(=O)CC[C@H](N2Cc3c(ccc4c3OCC43CCN(C[C@@H]4CCC5(CCN(c6ccc([C@@H]7c8ccc(O)cc8CC[C@@H]7c7ccccc7)cc6)CC5)OC4)CC3)C2=O)C1=O | – | – | Activity (Protein cereblon): inactive; Activity [3]: inactive; Activity (T47D [4]): inactive; Activity (T47D [5]): inactive; Activity (MCF7): Active |
| CN(C)C[C@@H]1CCC2(CCN(c3ccc([C@@H]4c5ccc(O)cc5CC[C@@H]4c4ccccc4)cc3)CC2)OC1 | – | – | Activity [3]: inactive; Activity (T47D [4]): inactive; Activity (T47D [5]): inactive; Activity (MCF7): Active |
| O=C1CC[C@H](N2Cc3c(ccc4c3OCC43CCN(CCC4CCN(c5ccc([C@@H]6c7ccc(O)cc7CC[C@@H]6c6ccccc6)cc5)CC4)CC3)C2=O)C(=O)N1 | 0.0043 nM | 80% | – |
| O=C1CC[C@H](N2Cc3c(ccc4c3OCC43CCN(C(=O)CN4CC5(CCN(c6ccc([C@@H]7c8ccc(O)cc8CC[C@@H]7c7ccccc7)cc6)CC5)C4)CC3)C2=O)C(=O)N1 | 0.018 nM | 106% | – |
| O=C1CC[C@H](N2Cc3c(ccc4c3OCC43CCN(CC(=O)N4CC5(C4)CN(c4ccc([C@@H]6c7ccc(O)cc7CC[C@@H]6c6ccccc6)cc4)C5)CC3)C2=O)C(=O)N1 | 0.0142 nM | 99% | – |
| O=C1CCC(N2Cc3c(ccc4c3OCC43CCN(CC4COC5(CCN(c6ccc([C@@H]7c8ccc(O)cc8CC[C@@H]7c7ccccc7)cc6)CC5)C4)CC3)C2=O)C(=O)N1 (stereo partly drawn) | 0.041 nM | 79% | – |
| O=C1CC[C@H](N2Cc3c(ccc4c3OCC43CCN(C(=O)CN4CCC5(CCN(c6ccc([C@@H]7c8ccc(O)cc8CC[C@@H]7c7ccccc7)cc6)CC5)C4)CC3)C2=O)C(=O)N1 | 0.029 nM | 107% | – |
| O=C1CC[C@H](N2Cc3c(ccc4c3OCC43CCN(CCCC4CCN(c5ccc([C@@H]6c7ccc(O)cc7CC[C@@H]6c6ccccc6)cc5)CC4)CC3)C2=O)C(=O)N1 | 0.038 nM | 98% | – |
| O=C1CC[C@H](N2Cc3c(ccc4c3OCC43CCN(CC(=O)N4CCCC5(CCN(c6ccc([C@@H]7c8ccc(O)cc8CC[C@@H]7c7ccccc7)cc6)CC5)C4)CC3)C2=O)C(=O)N1 | 0.0288 nM | 99% | – |

| Structure (SMILES) | DC50 [1] | Emax [2] | other results |
| --- | --- | --- | --- |
| O=C1CC[C@H](N2Cc3c(ccc4c3OCC43CCNCC3)C2=O)C(=O)N1 | – | – | IC50 (Protein cereblon): 230 nM; t1/2 [6]: > 1 h; t1/2 [7]: > 1 h; t1/2 [8]: > 1 h; t1/2 [9]: > 1 h; t1/2 [10]: > 1 h |
| O=C1CC[C@H](N2Cc3c(ccc4c3OCC43CCN(CC4CCC5(CCN(c6ccc([C@@H]7c8ccc(O)cc8CC[C@@H]7c7ccccc7)cc6)CC5)O4)CC3)C2=O)C(=O)N1 (stereo partly drawn) | 0.604 nM | 86% | – |
| O=C1CC[C@H](N2Cc3c(ccc4c3OCC43CCN(C(=O)C4CCN(c5ccc([C@@H]6c7ccc(O)cc7CC[C@@H]6c6ccccc6)cc5)CC4)CC3)C2=O)C(=O)N1 | 0.028 nM | 82% | – |
| O=C1CC[C@H](N2Cc3c(ccc4c3OCC43CCN(CC4CCC5(CCN(c6ccc([C@@H]7c8ccc(O)cc8CC[C@@H]7c7ccccc7)cc6)CC5)OC4)CC3)C2=O)C(=O)N1 (stereo partly drawn) | 0.139 nM | 99% | – |
| O=C1CC[C@H](N2Cc3c(ccc4c3OCC43CCN(CC4CCC5(CC4)CCN(c4ccc([C@@H]6c7ccc(O)cc7CC[C@@H]6c6ccccc6)cc4)CC5)CC3)C2=O)C(=O)N1 | 0.337 nM | 99% | – |
| Oc1ccc2c(c1)CC[C@H](c1ccccc1)[C@@H]2c1ccc(OCCN2CCCC2)cc1 | – | – | Activity [3]: inactive; Activity (T47D [4]): inactive; Activity (T47D [5]): inactive |
| O=C1CC[C@H](N2Cc3c(ccc4c3OCC43CCN(C(=O)CC4CCN(c5ccc([C@@H]6c7ccc(O)cc7CC[C@@H]6c6ccccc6)cc5)CC4)CC3)C2=O)C(=O)N1 | 0.025 nM | 86% | – |
| O=C1CC[C@H](N2Cc3c(ccc4c3OCC43CCN(CC(=O)N4CCC5(CC4)CCN(c4ccc([C@@H]6c7ccc(O)cc7CC[C@@H]6c6ccccc6)cc4)CC5)CC3)C2=O)C(=O)N1 | 0.0363 nM | 105% | – |
| O=C1CC[C@H](N2Cc3c(ccc4c3OCC43CCN(CC4CCN(c5ccc([C@@H]6c7ccc(O)cc7CC[C@@H]6c6ccccc6)cc5)CC4)CC3)C2=O)C(=O)N1 | – | 37% | – |
| O=C1CC[C@H](N2Cc3c(ccc4c3OCC43CCN(CC(=O)N4CCC5(CCN(c6ccc([C@@H]7c8ccc(O)cc8CC[C@@H]7c7ccccc7)cc6)CC5)C4)CC3)C2=O)C(=O)N1 | 0.0419 nM | 100% | – |
| CCNCCc1ccc(CN(CC)c2cc(OC)ccc2[C@@H]2CCc3cc(O)ccc3C2)cc1 | – | – | Activity [3]: Active; Activity (T47D [4]): Active; Activity (T47D [5]): Active |
| O=C1CC[C@H](N2Cc3c(ccc4c3OCC43CCN(CC(=O)N4CCC5(CC4)CN(c4ccc([C@@H]6c7ccc(O)cc7CC[C@@H]6c6ccccc6)cc4)C5)CC3)C2=O)C(=O)N1 | 0.253 nM | 102% | concentration at 1 h [11]: 32 ng/mL; concentration at 3 h [12]: 26 ng/mL; concentration at 6 h [13]: 17 ng/mL; concentration at 24 h [14]: < 5 ng/mL |
| O=C1CC[C@H](N2Cc3c(ccc4c3OCC43CCN(C(=O)CN4CCCC5(CCN(c6ccc([C@@H]7c8ccc(O)cc8CC[C@@H]7c7ccccc7)cc6)CC5)C4)CC3)C2=O)C(=O)N1 | 0.202 nM | 95% | – |
| O=C1CC[C@H](N2Cc3c(ccc4c3OCC43CCN(C(=O)CCCC4CCN(c5ccc([C@@H]6c7ccc(O)cc7CC[C@@H]6c6ccccc6)cc5)CC4)CC3)C2=O)C(=O)N1 | 0.079 nM | 95% | – |
| O=C1CC[C@H](N2Cc3c(ccc4c3OCC43CCN(C(=O)CCC4CCN(c5ccc([C@@H]6c7ccc(O)cc7CC[C@@H]6c6ccccc6)cc5)CC4)CC3)C2=O)C(=O)N1 | 0.116 nM | 89% | – |
| O=C1CC[C@H](N2Cc3c(ccc4c3OCC43CCN(CC4CCC5(CC4)CN(c4ccc([C@@H]6c7ccc(O)cc7CC[C@@H]6c6ccccc6)cc4)C5)CC3)C2=O)C(=O)N1 | 0.11 nM | 95% | – |
| O=C1CC[C@H](N2Cc3cc(N4CCN(CC5CCN(c6ccc([C@@H]7c8ccc(O)cc8CC[C@@H]7c7ccccc7)cc6)CC5)CC4)ccc3C2=O)C(=O)N1 [VEPDEGESTRANT] | – | – | Activity (T47D [4]): > 80%; Activity (T47D [5]): > 80% |
| O=C1CC[C@H](N2Cc3c(ccc4c3OCC43CCN(C(=O)CN4CCC5(CC4)CN(c4ccc([C@@H]6c7ccc(O)cc7CC[C@@H]6c6ccccc6)cc4)C5)CC3)C2=O)C(=O)N1 | 0.034 nM | 96% | concentration at 1 h [11]: 16 ng/mL; concentration at 3 h [12]: 13 ng/mL; concentration at 6 h [13]: 9 ng/mL; concentration at 24 h [14]: < 5 ng/mL |
| O=C1CC[C@H](N2Cc3c(ccc4c3OCC43CCN(CC4CC5(C4)CN(c4ccc([C@@H]6c7ccc(O)cc7CC[C@@H]6c6ccccc6)cc4)C5)CC3)C2=O)C(=O)N1 | 0.156 nM | 81% | – |
